# Results published in ChEMBL document CHEMBL1123842, “Structural modification study of mitoxantrone (DHAQ). Chloro-substituted mono- and bis[(aminoalkyl)amino]anthraquinones” (1987).
# Columns and labels:
# P388 [1] = test: In vivo antineoplastic activity was determined in BDF1 mice implanted with P388 leukemia and activity is expressed as T/C at 400 mg/kg ip dose (Q4dx2 treatment); format: functional, Mus musculus; conditions: route intraperitoneal
# P388 [2] = test: In vivo antineoplastic activity was determined in BDF1 mice implanted with P388 leukemia and activity is expressed as T/C at 200 mg/kg ip dose (Q4dx2 treatment); format: functional, Mus musculus; conditions: route intraperitoneal
# L1210 = test: In vitro cytotoxicity against L1210 leukemia cells was determined; format: functional; conditions: Mus musculus
# P388 [3] = test: In vivo antineoplastic activity was determined in BDF1 mice implanted with P388 leukemia and activity is expressed as T/C at 100 mg/kg ip dose (Q4dx2 treatment); format: functional, Mus musculus; conditions: route intraperitoneal
# [4] = tested on: Colon adenocarcinoma cell line; test: In vitro cytotoxicity against Human colon adenocarcinoma cells was determined; format: functional
# P388 [5] = test: In vivo antineoplastic activity was determined in BDF1 mice implanted with P388 leukemia and activity is expressed as T/C at 30 mg/kg ip dose (Q1dx5 treatment); conditions: route intraperitoneal
# P388 [6] = test: In vivo antineoplastic activity was determined in BDF1 mice implanted with P388 leukemia and activity is expressed as T/C at 60 mg/kg ip dose (Q1dx5 treatment); conditions: route intraperitoneal
# P388 [7] = test: In vivo antineoplastic activity was determined in BDF1 mice implanted with P388 leukemia and activity is expressed as T/C at 120 mg/kg ip dose (Q1dx5 treatment); conditions: route intraperitoneal
# P388 [8] = test: In vivo antineoplastic activity was determined in BDF1 mice implanted with P388 leukemia and activity is expressed as T/C at 200 mg/kg ip dose (Q1dx5 treatment); conditions: route intraperitoneal
# P388 [9] = test: In vivo antineoplastic activity was determined in BDF1 mice implanted with P388 leukemia and activity is expressed as T/C at 100 mg/kg ip dose (Q4dx5 treatment); format: functional, Mus musculus; conditions: route intraperitoneal
# B16 [10] = test: In vivo antineoplastic activity was determined in BDF1 mice implanted with B16 melanoma and activity expressed as T/C at 50 mg/kg ip dose (Q1Dx9 treatment); format: functional, Mus musculus; conditions: route intraperitoneal
# B16 [11] = test: In vivo antineoplastic activity was determined in BDF1 mice implanted with B16 melanoma and activity expressed as T/C at 6.25 mg/kg ip dose (Q1Dx9 treatment); format: functional, Mus musculus; conditions: route intraperitoneal
# B16 [12] = test: In vivo antineoplastic activity was determined in BDF1 mice implanted with B16 melanoma and activity expressed as T/C at 25 mg/kg ip dose (Q1Dx9 treatment); format: functional, Mus musculus; conditions: route intraperitoneal
# P388 [13] = test: In vivo antineoplastic activity was determined in BDF1 mice implanted with P388 leukemia and activity is expressed as T/C at 50 mg/kg ip dose (Q4dx2 treatment); format: functional, Mus musculus; conditions: route intraperitoneal
# B16 [14] = test: In vivo antineoplastic activity was determined in BDF1 mice implanted with B16 melanoma and activity expressed as T/C at 12.5 mg/kg ip dose (Q1Dx9 treatment); format: functional, Mus musculus; conditions: route intraperitoneal
# P388 [15] = test: In vivo antineoplastic activity was determined in BDF1 mice implanted with P388 leukemia and activity is expressed as T/C at 120 mg/kg ip dose (Q1dx5 treatment); conditions: route intraperitoneal; remark: listed apart in the source
# P388 [16] = test: In vivo antineoplastic activity was determined in BDF1 mice implanted with P388 leukemia and activity is expressed as T/C at 10 mg/kg ip dose (Q4dx2 treatment); format: functional, Mus musculus; conditions: route intraperitoneal
# P388 [17] = test: In vivo antineoplastic activity was determined in BDF1 mice implanted with P388 leukemia and activity is expressed as T/C at 40 mg/kg ip dose (Q4dx2 treatment); format: functional, Mus musculus; conditions: route intraperitoneal
# P388 [18] = test: In vivo antineoplastic activity was determined in BDF1 mice implanted with P388 leukemia and activity is expressed as T/C at 20 mg/kg ip dose (Q4dx2 treatment); format: functional, Mus musculus; conditions: route intraperitoneal
# P388 [19] = test: In vivo antineoplastic activity was determined in BDF1 mice implanted with P388 leukemia and activity is expressed as T/C at 160 mg/kg ip dose (Q4dx2 treatment); format: functional, Mus musculus; conditions: route intraperitoneal
# P388 [20] = test: In vivo antineoplastic activity was determined in BDF1 mice implanted with P388 leukemia and activity is expressed as T/C at 80 mg/kg ip dose (Q4dx2 treatment); format: functional, Mus musculus; conditions: route intraperitoneal
# P388 [21] = test: In vivo antineoplastic activity was determined in BDF1 mice implanted with P388 leukemia and activity is expressed as T/C at 80 mg/kg ip dose (Q1dx9 treatment); conditions: route intraperitoneal
# P388 [22] = test: Antineoplastic activity was determined in BDF1 mice in vivo implanted with P388 leukemia and t/c was determined at 40 mg/kg ip dose (Q4dx9 treatment); format: functional, Mus musculus; conditions: route intraperitoneal
# P388 [23] = test: In vivo antineoplastic activity was determined in BDF1 mice implanted with P388 leukemia and activity is expressed as T/C at 160 mg/kg ip dose (Q1dx9 treatment); conditions: route intraperitoneal
# P388 [24] = test: In vivo antineoplastic activity was determined in BDF1 mice implanted with P388 leukemia and activity is expressed as T/C at 100 mg/kg ip dose (Q1dx5 treatment); conditions: route intraperitoneal
# P388 [25] = test: In vivo antineoplastic activity was determined in BDF1 mice implanted with P388 leukemia and activity is expressed as T/C at 12.5 mg/kg ip dose (Q4dx5 treatment); format: functional, Mus musculus; conditions: route intraperitoneal
# P388 [26] = test: In vivo antineoplastic activity was determined in BDF1 mice implanted with P388 leukemia and activity is expressed as T/C at 50 mg/kg ip dose (Q1dx5 treatment); conditions: route intraperitoneal
# B16 [27] = test: In vivo antineoplastic activity was determined in BDF1 mice implanted with B16 melanoma and activity expressed as T/C at 80 mg/kg ip dose (Q1Dx9 treatment); format: functional, Mus musculus; conditions: route intraperitoneal
# B16 [28] = test: In vivo antineoplastic activity was determined in BDF1 mice implanted with B16 melanoma and activity expressed as T/C at 40 mg/kg ip dose (Q1Dx9 treatment); format: functional, Mus musculus; conditions: route intraperitoneal
# B16 [29] = test: In vivo antineoplastic activity was determined in BDF1 mice implanted with B16 melanoma and activity expressed as T/C at 20 mg/kg ip dose (Q1Dx9 treatment); format: functional, Mus musculus; conditions: route intraperitoneal
# B16 [30] = test: In vivo antineoplastic activity was determined in BDF1 mice implanted with B16 melanoma and activity expressed as T/C at 160 mg/kg ip dose (Q1Dx9 treatment); format: functional, Mus musculus; conditions: route intraperitoneal
# P388 [31] = test: In vivo antineoplastic activity was determined in BDF1 mice implanted with P388 leukemia and activity is expressed as T/C at 6.25 mg/kg ip dose (Q4dx5 treatment); format: functional, Mus musculus; conditions: route intraperitoneal
# B16 [32] = test: In vivo antineoplastic activity was determined in BDF1 mice implanted with B16 melanoma and activity expressed as T/C at 100 mg/kg ip dose (Q1Dx9 treatment); format: functional, Mus musculus; conditions: route intraperitoneal
# P388 [33] = test: In vivo antineoplastic activity was determined in BDF1 mice implanted with P388 leukemia and activity is expressed as T/C at 25 mg/kg ip dose (Q1dx5 treatment); conditions: route intraperitoneal
# P388 [34] = test: In vivo antineoplastic activity was determined in BDF1 mice implanted with P388 leukemia and activity is expressed as T/C at 0.5 mg/kg; format: functional, Mus musculus
# P388 [35] = test: In vivo antineoplastic activity was determined in BDF1 mice implanted with P388 leukemia and activity is expressed as T/C at 0.25 mg/kg; format: functional, Mus musculus
# P388 [36] = test: In vivo antineoplastic activity was determined in BDF1 mice implanted with P388 leukemia and activity is expressed as T/C at 0.12 mg/kg; format: functional, Mus musculus
# P388 [37] = test: In vivo antineoplastic activity was determined in BDF1 mice implanted with P388 leukemia and activity is expressed as T/C at 1 mg/kg; format: functional, Mus musculus
# P388 [38] = test: In vivo antineoplastic activity was determined in BDF1 mice implanted with P388 leukemia and activity is expressed as T/C at 2 mg/kg; format: functional, Mus musculus
# P388 [39] = test: In vivo antineoplastic activity was determined in BDF1 mice implanted with P388 leukemia and activity is expressed as T/C at 0.06 mg/kg; format: functional, Mus musculus
structure (smiles),measurement,setting,value
CN(C)CCNc1ccc(Cl)c2c1C(=O)c1c(O)ccc(Cl)c1C2=O,T/C,P388 [1],125
same,T/C,P388 [2],113
same,CC50,L1210,176 nM
O=C1c2cccc(NCCNCCO)c2C(=O)c2cccc(Cl)c21,T/C,P388 [3],100
same,T/C,P388 [2],105
same,CC50,L1210,1170 nM
same,CC50,[4],1400 nM
CN(C)CCNc1ccc(Cl)c2c1C(=O)c1c(O)ccc(O)c1C2=O,T/C,P388 [5],121
same,T/C,P388 [6],137
same,T/C,P388 [7],169
same,CC50,L1210,36.2 nM
CN(C)CCNc1ccc(Cl)c2c1C(=O)c1c(NCCN(C)C)ccc(Cl)c1C2=O,T/C,P388 [8],119
same,T/C,P388 [9],113
same,CC50,L1210,1670 nM
CN(C)CCCNc1ccc(Cl)c2c1C(=O)c1c(O)ccc(O)c1C2=O,T/C,P388 [5],109
same,T/C,P388 [6],123
same,T/C,P388 [7],129
same,CC50,L1210,265 nM
CN(C)CCNc1ccc(NCCN(C)C)c2c1C(=O)c1c(Cl)ccc(Cl)c1C2=O,T/C,P388 [3],120
same,T/C,P388 [2],117
same,T/C,B16 [10],133
same,CC50,L1210,117 nM
same,T/C,B16 [11],117
same,CC50,[4],130 nM
same,T/C,B16 [12],141
same,T/C,P388 [13],110
same,T/C value,B16 [14],143
O=C1c2c(O)ccc(Cl)c2C(=O)c2c(NCCNCCO)ccc(Cl)c21,T/C,P388 [1],111
same,T/C,P388 [2],96
CN(C)CCNc1ccc(O)c2c1C(=O)c1c(Cl)ccc(Cl)c1C2=O,T/C,P388 [5],136
same,T/C,P388 [15],176
same,T/C,P388 [6],150
same,CC50,L1210,86.9 nM
same,CC50,[4],522 nM
CN(C)CCNc1ccc(Cl)c2c1C(=O)c1c(Cl)ccc(NCCN(C)C)c1C2=O,T/C,P388 [1],123
same,T/C,P388 [3],115
same,T/C,P388 [2],128
same,CC50,L1210,385 nM
same,CC50,[4],229 nM
O=C1c2c(O)ccc(O)c2C(=O)c2c(NCCNCCO)ccc(Cl)c21,T/C,P388 [16],113
same,CC50,L1210,398 nM
same,T/C,P388 [17],130
same,T/C,P388 [18],125
same,T/C,P388 [19],184
same,T/C,P388 [20],154
O=C1c2cccc(Cl)c2C(=O)c2c(NCCNCCO)cccc21,T/C,P388 [21],124
same,T/C,P388 [22],116
same,T/C,P388 [23],120
O=C1c2c(O)ccc(NCCNCCO)c2C(=O)c2c(Cl)ccc(Cl)c21,T/C,P388 [24],219
same,T/C,P388 [25],146
same,T/C,P388 [26],180
same,T/C,B16 [10],252
same,CC50,L1210,86.6 nM
same,T/C,B16 [27],271
same,T/C,B16 [28],231
same,T/C,B16 [11],166
same,T/C,B16 [29],224
same,T/C,B16 [30],326
same,T/C,P388 [31],154
same,T/C,B16 [32],270
same,T/C,B16 [12],199
same,T/C,P388 [33],203
same,T/C,B16 [14],172
CN(C)CCNc1ccc(Cl)c2c1C(=O)c1c(Cl)ccc(O)c1C2=O,CC50,L1210,1130 nM
same,T/C,P388 [17],103
same,T/C,P388 [20],117
O=C1c2c(O)ccc(O)c2C(=O)c2c(NCCNCCO)ccc(NCCNCCO)c21 [MITOXANTRONE],T/C,P388 [34],299
same,T/C,P388 [35],280
same,T/C,P388 [36],200
same,T/C,P388 [37],277
same,T/C,P388 [38],280
same,T/C,P388 [39],208
